According to patent publication US12161607B2, “Combination of cannabinoids in the treatment of leukemia” (Jazz Pharmaceuticals Research UK Limited, priority 2017, dated 2024):
Like-named read-outs stand apart in the source and are kept apart here.

Tested on: HL60 cell line
Test: Combination study, modulatory effect: IC50 of chemotherapy drug without and with cannabinoid-pair (72 h)
Type: cell-based
Details: Homo sapiens, HL-60, 72 h, HL60, 72 h, read-out: IC50 for percentage cell viability
Method: FIG. 2. Sensitising chemotherapy action with low doses of cannabinoids. […] The effect of a low dose of CBD/THC or CBD/CBG on the activity of CYT and VIN was also assessed. IC50 values for percentage cell viability were determined by emax models.
Cytarabine (CYT), (Sigma) and vincristine (VIN), (Sigma) were reconstituted in PBS at a stock concentration of 10 mM, and kept at −20° C. for no more than four weeks.
The ability of cannabinoids to modify the efficacy CYT and VIN was studied by assessing and comparing the IC50 of the anti-leukaemia drugs in the absence and presence of the cannabinoids.
The cannabinoids tested were CBD+CBG and CBD+THC, and these were used at a single total sub-optimal concentration of 1 μM in CEM and 5 μM HL60.
Drugs were added (CYT and VIN over a range of concentrations) and cell number determined after 72 h.
The ability of a sub-effective concentration of cannabinoid to alter the efficacy of CYT or VIN was determined by comparing the IC50s of the chemotherapy agents in the absence or presence of the cannabinoid-pair.

Nc1ccn([C@@H]2O[C@H](CO)[C@@H](O)[C@@H]2O)c(=O)n1 [cytarabine, Cytarabine]
IC50 (CBD+CBG added (sub-optimal total 5 μM in HL60)): 150 nM
IC50 (CBD+THC added (sub-optimal total 5 μM in HL60)): 8 nM
IC50 (chemotherapy drug alone): 100 nM
